In patent US20240238249A1, “Lipidic Nano-Pharmaceuticals” (Huxley Health Inc., priority 2022, published 2024):

Key:
[1] = 14C mescaline injected into developing rats; especially in adult animals; cited from earlier work
[2] = 14C labelled psilocybin, animals; cited from earlier work

CCCCCCCC(=O)Oc1ccc2[nH]cc(CCN(C)C)c2c1
melting point: 48.3 to 50.2 °C

COc1cc(CCN)cc(OC)c1OC [mescaline, 3,4,5-trimethoxyphenethylamine]
permeability of the BBB to mescaline [1]: nearly impermeable

CN(C)CCc1c[nH]c2cccc(OP(=O)(O)O)c12 [psilocybin]
absorption following oral administration [2]: < 50%
